In US20200405697A1, “Antitumor Agent” (Taiho Pharmaceutical Co., Ltd, priority 2017, published 2020):

Molecular target: T1, human RNR (histidine tagged human M1 and human M2 proteins) (Homo sapiens, UniProt P23921)
T1 construct: made in house; host or cells: Escherichia coli
T1 sequence (P23921 1-792): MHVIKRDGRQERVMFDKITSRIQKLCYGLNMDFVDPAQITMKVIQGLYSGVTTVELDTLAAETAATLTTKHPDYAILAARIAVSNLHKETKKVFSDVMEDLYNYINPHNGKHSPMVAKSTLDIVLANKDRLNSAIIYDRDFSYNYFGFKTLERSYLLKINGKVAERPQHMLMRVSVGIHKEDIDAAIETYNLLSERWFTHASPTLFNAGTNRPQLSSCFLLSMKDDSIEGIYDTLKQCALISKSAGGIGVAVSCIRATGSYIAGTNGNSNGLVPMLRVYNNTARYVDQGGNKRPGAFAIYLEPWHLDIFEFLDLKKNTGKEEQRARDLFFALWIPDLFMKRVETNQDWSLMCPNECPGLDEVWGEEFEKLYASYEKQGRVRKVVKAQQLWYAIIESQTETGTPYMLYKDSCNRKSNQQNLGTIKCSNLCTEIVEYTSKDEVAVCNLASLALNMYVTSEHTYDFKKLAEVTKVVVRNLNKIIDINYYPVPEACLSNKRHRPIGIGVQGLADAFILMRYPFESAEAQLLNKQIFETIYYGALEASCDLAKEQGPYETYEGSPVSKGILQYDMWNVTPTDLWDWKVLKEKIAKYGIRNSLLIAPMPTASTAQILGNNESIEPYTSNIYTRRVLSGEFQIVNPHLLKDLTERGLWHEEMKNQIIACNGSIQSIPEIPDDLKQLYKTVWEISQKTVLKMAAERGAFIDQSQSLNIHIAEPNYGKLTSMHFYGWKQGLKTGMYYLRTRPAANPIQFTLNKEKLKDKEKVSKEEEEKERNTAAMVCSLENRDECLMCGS
Assay: Human RNR inhibition effect (dCDP formation from CDP)
Assay type: biochemical
Conditions: 10 μM CDP, 37° C. for 30 minutes, read-out: RNR inhibitory activity IC50
Method in brief: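 His-tagged human M1 (isoform 1) and N-terminal 59-aa-truncated M2 (isoform 2), E. coli-expressed, Ni-purified, preincubated 20 min with compound (1% DMSO). Reaction with 10 μM CDP, 2 mM ATP, 0.24 mM NADPH, 6 mM DTT, 4 mM Mg acetate, 100 mM KCl, 50 mM HEPES pH 7.2, 30 min at 37° C. dCDP formed quantified by reverse-phase HPLC after heat stop.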

IC50 [nM] | Compound
70 | Cc1ccc(F)c([C@@H](C)[C@H](NS(=O)(=O)c2cc(OCC(F)F)ccc2C(N)=O)c2n[nH]c(=O)o2)c1C [Example 263, 4-(2,2-difluoroethoxy)-2-(N-((1S,2R)-2-(6-fluoro-2,3-dimethylphenyl)-1-(5-oxo-4,5-dihydro-1,3,4-oxadiazol-2-yl)propyl)sulfamoyl)benzamide]
60 | Cc1c(Br)ccc(F)c1[C@@H](C)[C@H](NS(=O)(=O)c1ncc(Cl)cc1C(N)=O)c1n[nH]c(=O)o1 [Example 264, 2-(N-((1S,2R)-2-(3-bromo-6-fluoro-2-methylphenyl)-1-(5-oxo-4,5-dihydro-1,3,4-oxadiazol-2-yl)propyl)sulfamoyl)-5-chloronicotinamide]
260 | COc1cc(N)ccc1S(=O)(=O)N[C@H](c1n[nH]c(=O)o1)[C@H](C)c1c(F)ccc2ccccc12 [Example 265, 4-amino-N-((1S,2R)-2-(2-fluoronaphthalen-1-yl)-1-(5-oxo-4,5-dihydro-1,3,4-oxadiazol-2-yl)propyl)-2-methoxybenzenesulfonamide]
850 | C[C@H](c1cccc2c1CCCC2)[C@H](NS(=O)(=O)c1ccc(N)cc1)c1n[nH]c(=O)o1 [Example 266, 4-amino-N-((1S,2R)-1-(5-oxo-4,5-dihydro-1,3,4-oxadiazol-2-yl)-2-(5,6,7,8-tetrahydronaphthalen-1-yl)propyl)benzenesulfonamide]
510 | COc1cc(N)ccc1S(=O)(=O)N[C@H](c1n[nH]c(=O)o1)[C@H](C)c1cccc2cccc(C)c12 [Example 269, 4-amino-2-methoxy-N-((1S,2R)-2-(8-methylnaphthalen-1-yl)-1-(5-oxo-4,5-dihydro-1,3,4-oxadiazol-2-yl)propyl)benzenesulfonamide]
730 | COc1cc(N)ccc1S(=O)(=O)N[C@H](c1n[nH]c(=O)o1)[C@H](C)c1cccc2c1CCC2 [Example 270, 4-amino-N-((1S,2R)-2-(2,3-dihydro-1H-inden-4-yl)-1-(5-oxo-4,5-dihydro-1,3,4-oxadiazol-2-yl)propyl)-2-methoxybenzenesulfonamide]
230 | Cc1ccc(F)c([C@@H](C)[C@H](NS(=O)(=O)c2ccc(Cl)cc2N)c2n[nH]c(=O)o2)c1C [Example 271, 2-amino-4-chloro-N-((1S,2R)-2-(6-fluoro-2,3-dimethylphenyl)-1-(5-oxo-4,5-dihydro-1,3,4-oxadiazol-2-yl)propyl)benzenesulfonamide]
660 | COC(=O)c1cc(Cl)c(N)cc1S(=O)(=O)N[C@H](c1n[nH]c(=O)o1)[C@H](C)c1c(F)ccc(C)c1C [Example 272, methyl 4-amino-5-chloro-2-(N-((1S,2R)-2-(6-fluoro-2,3-dimethylphenyl)-1-(5-oxo-4,5-dihydro-1,3,4-oxadiazol-2-yl)propyl)sulfamoyl)benzoate]
130 | Cc1ccc(F)c([C@@H](C)[C@H](NS(=O)(=O)c2ccc(Cl)c3c2OCC(=O)N3CCO)c2n[nH]c(=O)o2)c1C [Example 273, 5-chloro-N-((1S,2R)-2-(6-fluoro-2,3-dimethylphenyl)-1-(5-oxo-4,5-dihydro-1,3,4-oxadiazol-2-yl)propyl)-4-(2-hydroxyethyl)-3-oxo-3,4-dihydro-2H-benzo[b][1,4]oxazine-8-sulfonamide]
440 | CC(=O)Nc1cc(Cl)ccc1S(=O)(=O)N[C@H](c1n[nH]c(=O)o1)[C@H](C)c1c(F)ccc(C)c1C [Example 274, N-(5-chloro-2-(N-((1S,2R)-2-(6-fluoro-2,3-dimethylphenyl)-1-(5-oxo-4,5-dihydro-1,3,4-oxadiazol-2-yl)propyl)sulfamoyl)phenyl)acetamide]
100 | Cc1ccc(F)c([C@@H](C)[C@H](NS(=O)(=O)c2ccc(Cl)c3c2OCCN3)c2n[nH]c(=O)o2)c1C [Example 275, 5-chloro-N-((1S,2R)-2-(6-fluoro-2,3-dimethylphenyl)-1-(5-oxo-4,5-dihydro-1,3,4-oxadiazol-2-yl)propyl)-3,4-dihydro-2H-benzo[b][1,4]oxazine-8-sulfonamide]
370 | CNC(=O)c1cc(Cl)ccc1S(=O)(=O)N[C@H](c1n[nH]c(=O)o1)[C@H](C)c1c(F)ccc(C)c1C [Example 277, 5-chloro-2-(N-((1S,2R)-2-(6-fluoro-2,3-dimethylphenyl)-1-(5-oxo-4,5-dihydro-1,3,4-oxadiazol-2-yl)propyl)sulfamoyl)-N-methylbenzamide]
130 | Cc1ccc(F)c([C@@H](C)[C@H](NS(=O)(=O)c2ccc(Cl)c3c2OCCC3N)c2n[nH]c(=O)o2)c1C (stereo partly drawn) [Example 278, 4-amino-5-chloro-N-((1S,2R)-2-(6-fluoro-2,3-dimethylphenyl)-1-(5-oxo-4,5-dihydro-1,3,4-oxadiazol-2-yl)propyl)chroman-8-sulfonamide]
420 | Cc1ccc(F)c([C@@H](C)[C@H](NS(=O)(=O)c2cccc3c2OCCN3)c2n[nH]c(=O)o2)c1C [Example 280, N-((1S,2R)-2-(6-fluoro-2,3-dimethylphenyl)-1-(5-oxo-4,5-dihydro-1,3,4-oxadiazol-2-yl)propyl)-3,4-dihydro-2H-benzo[b][1,4]oxazine-8-sulfonamide]
760 | Cc1ccc(F)c([C@@H](C)[C@H](NS(=O)(=O)c2cccc3c2CCNC3)c2n[nH]c(=O)o2)c1C [Example 281, N-((1S,2R)-2-(6-fluoro-2,3-dimethylphenyl)-1-(5-oxo-4,5-dihydro-1,3,4-oxadiazol-2-yl)propyl)-1,2,3,4-tetrahydroisoquinoline-5-sulfonamide]
910 | Cc1ccc(F)c([C@@H](C)[C@H](NS(=O)(=O)c2ccc(Cl)cc2C(=O)NOCc2ccccc2)c2n[nH]c(=O)o2)c1C [Example 282, N-(benzyloxy)-5-chloro-2-(N-((1S,2R)-2-(6-fluoro-2,3-dimethylphenyl)-1-(5-oxo-4,5-dihydro-1,3-oxadiazol-2-yl)propyl)sulfamoyl)benzamide]
150 | Cc1ccc(F)c([C@@H](C)[C@H](NS(=O)(=O)c2ccc(Cl)c(C(=O)N3CCC(N)C3)n2)c2n[nH]c(=O)o2)c1C (stereo partly drawn) [Example 283, 6-(3-aminopyrrolidine-1-carbonyl)-5-chloro-N-((1S,2R)-2-(6-fluoro-2,3-dimethylphenyl)-1-(5-oxo-4,5-dihydro-1,3,4-oxadiazol-2-yl)propyl)pyridine-2-sulfonamide]
560 | CC(=O)N1CCOc2c(S(=O)(=O)N[C@H](c3n[nH]c(=O)o3)[C@H](C)c3cccc(C)c3C)ccc(Cl)c21 [Example 284, 4-acetyl-5-chloro-N-((1S,2R)-2-(2,3-dimethylphenyl)-1-(5-oxo-4,5-dihydro-1,3,4-oxadiazol-2-yl)propyl)-3,4-dihydro-2H-benzo[b][1,4]oxazine-8-sulfonamide]
310 | Cc1ccc(F)c([C@@H](C)[C@H](NS(=O)(=O)c2ccccc2C(=O)NO)c2n[nH]c(=O)o2)c1C [Example 285, 2-(N-((1S,2R)-2-(6-fluoro-2,3-dimethylphenyl)-1-(5-oxo-4,5-dihydro-1,3,4-oxadiazol-2-yl)propyl)sulfamoyl)-N-hydroxybenzamide]
70 | Cc1ccc(F)c([C@@H](C)[C@H](NS(=O)(=O)c2ccc(Cl)cc2C(=O)NO)c2n[nH]c(=O)o2)c1C [Example 286, 5-chloro-2-(N-((1S,2R)-2-(6-fluoro-2,3-dimethylphenyl)-1-(5-oxo-4,5-dihydro-1,3,4-oxadiazol-2-yl)propyl)sulfamoyl)-N-hydroxybenzamide]
50 | Cc1ccc(F)c([C@@H](C)[C@H](NS(=O)(=O)c2ccc(Cl)cc2C(N)=S)c2n[nH]c(=O)o2)c1C [Example 287, 5-chloro-2-(N-((1S,2R)-2-(6-fluoro-2,3-dimethylphenyl)-1-(5-oxo-4,5-dihydro-1,3,4-oxadiazol-2-yl)propyl)sulfamoyl)benzothioamide]
130 | Cc1c(Cl)ccc(F)c1[C@@H](C)[C@H](NS(=O)(=O)c1ccc(Cl)c2c1OCCN2C)c1n[nH]c(=O)o1 [Example 289, 5-chloro-N-((1S,2R)-2-(3-chloro-6-fluoro-2-methylphenyl)-1-(5-oxo-4,5-dihydro-1,3,4-oxadiazol-2-yl)propyl)-4-methyl-3,4-dihydro-2H-benzo[b][1,4]oxazine-8-sulfonamide]
110 | COc1c(S(=O)(=O)N[C@H](c2n[nH]c(=O)o2)[C@H](C)c2c(F)ccc(C)c2C)ccc(Cl)c1C(C)=O [Example 294, 3-acetyl-4-chloro-N-((1S,2R)-2-(6-fluoro-2,3-dimethylphenyl)-1-(5-oxo-4,5-dihydro-1,3,4-oxadiazol-2-yl)propyl)-2-methoxybenzenesulfonamide]
